From US10357577B2, “Bacterial nitroreductase enzymes and methods relating thereto” (AUCKLAND UNISERVICES LIMITED, priority 2010, dated 2019)
“And” between values parts separate entries of the source, which are not always exact repeats. Equal values may be shown once. “Also recorded” adds a separate entry of the source.

Key:
Format in all cases: cell-based, human
[1] = system: nitroreductase NfsA-expressing HCT116 'activator' cells; experiment: MCL (multicellular layer) bystander experiment, NfsA-dependent activation; details: for bystander property (in words): MCL of NTR-expressing and parental HCT116 cells; for estimated bystander effect efficiency (BEE) / calculated bystander effect efficiency (BEE): hyperoxic (95% O2) MCLs; for estimated bystander effect efficiency (BEE): at concentrations achievable in α-MEM+10% FBS, activator fraction differs per experiment; for calculated bystander effect efficiency (BEE): HCT116-WT targets mixed with NfsA activators (activator fraction differs per experiment)
Method: Displacement of the Target cell survival curve to the left (T to Tc) is indicative of the presence of a cytotoxic metabolite(s) able to diffusible out of the sensitive activator (A) cell population. The prodrug concentrations for 10% survival (C10) of target cells (wild-type cells) grown without activators (T), targets in co-culture (TC) and activators (nfsA-expressing cells) in co-culture (AC) were determined by interpolation. BEE-Bystander effect efficiency calculates the drugs bystander effect: ((Log C10T−Log C10TC)/(Log C10T−Log C10AC)).
The prodrug concentrations for 10% survival (C10) of target cells (wild-type cells) grown without activators (T), and targets in co-culture (TC) and activators (NTR-expressing cells) in co-culture (AC) can be determined. The bystander effect of a test prodrug is measured by the bystander effect efficiency which can be calculated using the algorithm ((Log C10T−Log C10TC)/(Log C10T−Log C10AC)).
Millicell-CM membrane inserts (Millipore) were coated in calf-skin collagen type III (Sigma-Aldrich) to facilitate cell attachment. […] After exposure, inserts were disaggregated (0.07% trypsin, 10 min, 37° C., followed by 100 μg/ml DNAase I (Sigma-Aldrich). Cells were counted, resuspended and plated in P60 dishes to determine clonogenic survival. To discriminate clonogenic activator (NTR+) from target (NTR−) colonies cells were plated in non-selective medium (total cells) and medium containing 1 μM puromycin (activator cells). Colonies were grown in a 37° C. 5% CO2 incubator for 10 days before staining with methylene blue (2 g/liter in 50% v/v aqueous ethanol). Colonies containing >50 cells were counted as clonogenic survivors. Surviving fractions for each population was calculated as the plating efficiency for drug-treated MCLs/untreated controls. The drug concentrations for 10% survival (C10) of target cells grown without activators (T), targets in co-culture (Tc) and activators in co-culture (Ac) was determined by interpolation.

[2] = system: HCT116 cells expressing E. coli NfsA; details: low cell density proliferation assay
Method: (§1) FIGS. 10 (B) and 10 (C) illustrates the results of evaluation of 2-nitroimidazole clinical imaging candidates with E. coli and non-E. coli NTRs. Stably-expressing cells were treated with varying concentration of 2-nitroimidazole prodrugs diluted in αMEM+5% FCS+P/S. Cells were exposed to prodrug for 18 hrs, washed and left to regrow for 5 days. IC50 was determined as the concentration of prodrug required to inhibit cell growth by 50% of untreated controls. IC50 values are mean for ≥2 independent experiments. WT:NTR ratio-ratio of IC50 means from WT cells versus NTR-expressing cell lines.
(§2) FIG. 21 illustrates antiproliferative activity (IC50 value) of prodrug candidates with E. coli and non-E. coli nitroreductases. Stably-expressing cells were treated with varying concentration of prodrug diluted in αMEM+5% FCS+P/S. Cells were exposed to prodrug for 18 hrs, washed and left to regrow for 5 days. IC50 was determined as the concentration of prodrug required to inhibit cell growth by 50% of untreated controls. IC50 values are mean for ≥2 independent experiments. WT:NTR ratio-interexperimental ratio of IC50 means from WT cells versus NTR-expressing cell lines.
(§3) Isolated NTR gene sequences were subject to PCR and introduced in the bicistronic plasmid F579 via Gateway cloning (Invitrogen) as described by Prosser et al. (2010, Biochem Pharmacol, 79, 678-687). Stably transfected cell lines were created by transfection of the relevant plasmid using FuGENE 6 Transfection Reagent (Roche). Transfected cell populations were maintained by passage in puromycin
(§4) Cells were passaged in alpha-Minimal Essential Media, (αMEM; Gibco) supplemented with 5% FBS, (GIBCO NZ) without antibiotics. Cell were passaged for <3 months from frozen stocks and confirmed Mycoplasma free (PCR-ELISA; Roche Diagnostics). Cells were aliquoted into the 96-well plate (100 μL/well) and cells were left to attach (≥4 hrs). […] Plates were read on an ELx 808 Absorbance Microplate Reader (Bio-Tek Instruments). Absorbance was measured at 490 nm and 450 nm (final absorbance 490-450). […]

[3] = system: HCT116 cells expressing E. coli NfsB; experiment: Monolayer antiproliferative (IC50) assay, NTR-expressing HCT116; details: low cell density proliferation assay
Method: as §1, §2, §3, §4

[4] = system: HCT116-WT (parental) 'target' cells; experiment: MCL (multicellular layer) bystander experiment, target cells
Excerpt: FIG. 22 illustrates NfsA-dependent activation of TH-302 in an MCL bystander experiment. It includes a representative bystander efficiency graph. TH-302 dose-response curves for hyperoxic (95% O2) multicellular layers (MCLs) of HCT116-WT (parental) ‘target’ cells in the absence (T) and presence (Tc) of nitroreductase NfsA-expressing HCT116 ‘activator’ cells (A). MCLs are composed of ‘targets only’ (T) or as intimate mixtures of 29% (±4%) NfsA activators (A) and 71% targets (Tc). Displacement of the Target cell survival curve to the left (T to Tc) is indicative of the presence of a cytotoxic metabolite(s) able to diffusible out of the sensitive activator (A) cell population. The prodrug concentrations for 10% survival (C10) of target cells (wild-type cells) grown without activators (T), targets in co-culture (TC) and activators (nfsA-expressing cells) in co-culture (AC) were determined by interpolation. BEE-Bystander effect efficiency calculates the drugs bystander effect: ((Log C10T−Log C10TC)/(Log C10T−Log C10AC)). The calculated bystander effect efficiency is 43.4%.
Bystander effects can be quantified according to methods described in Wilson et al, 2002, Cancer Res. 62:1425-1432, by employing a 3D multicellular layer (MCL) composed of a minority (1%) of NTR-expressing ‘activator’ cells, mixed with a majority (99%) of parental (wild-type) ‘target’ cells. The prodrug concentrations for 10% survival (C10) of target cells (wild-type cells) grown without activators (T), and targets in co-culture (TC) and activators (NTR-expressing cells) in co-culture (AC) can be determined. The bystander effect of a test prodrug is measured by the bystander effect efficiency which can be calculated using the algorithm ((Log C10T−Log C10TC)/(Log C10T−Log C10AC)). […]
Millicell-CM membrane inserts (Millipore) were coated in calf-skin collagen type III (Sigma-Aldrich) to facilitate cell attachment. […] Surviving fractions for each population was calculated as the plating efficiency for drug-treated MCLs/untreated controls. […]

Row | Compound | bystander property (in words) [1] | estimated bystander effect efficiency (BEE) [1] [%] | also measured
1 | O=C(Cn1ccnc1[N+](=O)[O-])NCCO [Etanidazole, N-(2-hydroxyethyl)-2-(2-nitro-1H-imidazol-1-yl)acetamide] | zero bystander property | 0 | –
2 | COCC(O)Cn1ccnc1[N+](=O)[O-] (stereo not drawn) [Misonidazole, 1-methoxy-3-(2-nitro-1H-imidazol-1-yl)propan-2-ol] | zero bystander property | 0 | –
3 | O=C1CN(/N=C/c2ccc([N+](=O)[O-])o2)C(=O)N1 [Nitrofurantoin, (E)-1-(((5-nitrofuran-2-yl)methylene)amino)imidazolidine-2,4-dione] | zero bystander property | – | calculated bystander effect efficiency (BEE) [1]: 0%
4 | CS(=O)(=O)OCCN(CCBr)c1c(C(=O)NCCO)cc([N+](=O)[O-])cc1[N+](=O)[O-] [PR-104A, 2-((2-bromoethyl)(2-((2-hydroxyethyl)carbamoyl)-4,6-dinitrophenyl)amino)ethyl methanesulfonate] | marked bystander property | 89 | prodrug activation (in words) [2]: significant activation; prodrug activation (in words) [3]: significant activation
5 | O=[N+]([O-])c1nccn1CC(O)CNCCBr (stereo not drawn) [RB6145] | lack any measurable bystander effect | – | –
6 | O=[N+]([O-])c1nccn1CC(O)CN1CC1 (stereo not drawn) [RSU-1069, 1-(aziridin-1-yl)-3-(2-nitro-1H-imidazol-1-yl)propan-2-ol] | lack any measurable bystander effect | – | –
7 | CN(CCO)C(=O)c1cc([N+](=O)[O-])cc([N+](=O)[O-])c1N(CCBr)CCBr [SN31609, 2-(bis(2-bromoethyl)amino)-N-(2-hydroxyethyl)-N-methyl-3,5-dinitrobenzamide] | – | – | prodrug activation (in words) [2]: significant activation; prodrug activation (in words) [3]: significant activation
8 | Cn1c(COP(=O)(NCCBr)NCCBr)cnc1[N+](=O)[O-] [TH-302, N,N′-bis(2-bromoethyl)-(1-methyl-2-nitro-1H-imidazol-5-yl)methyl phosphorodiamidic acid ester] | – | – | fold less sensitive, NfsA negative cells versus nfsA-expressing cells ([4]; MCL model): 210 fold; C10 (concentration for 10% survival) of NfsA negative cells in co-culture ([4]; MCL, targets in co-culture with activators): 1.86 µM; C10 (concentration for 10% survival) of NfsA negative cells ([4]; MCL, targets without activators): 18.9 µM; calculated bystander effect efficiency (BEE) [1]: 43.4% and 43%; sterilisation of the nfsA-expressing cells in the MCL model ([1]; incubation with 90 nM TH-302): Greater than 90%
9 | CCS(=O)(=O)CCn1c([N+](=O)[O-])cnc1C [Tinidazole, 1-(2-(ethylsulfonyl)ethyl)-2-methyl-5-nitro-1H-imidazole] | lack any measurable bystander effect; also recorded: zero bystander property | 0 | –
